The values that follow are results of earlier work, collected in publication PMC9800617, “Pharmacokinetics/pharmacodynamics of polymyxin B in patients with bloodstream infection caused by carbapenem-resistant Klebsiella pneumoniae” (Frontiers in Pharmacology, 2022).

In general, clearance refers to the rate of elimination divided by the concentration. One may read the half-life as how long it takes for the measured level to halve.

For data set [1] the following is noted: cited from earlier work. The procedure: Monte Carlo simulations were conducted for the probability of target attainment (PTA) analysis to guide the selection of optimal dosage regimens. Different dosage regimens were simulated by the PPK model and AUCss,24h were calculated. […] The maximal reductions in colony f ... || FIGURE 4 Probability of target attainment for different dosage regimens of polymyxin B against common carbapenem-resistant organisms according to PK/PD simulations. (A) Loading dose for three bacterial species. […] Or gani s m Dose Dosing MIC (mg/L) (m g/ k g) frequen c y 0.25 0.5 1 2 4 8 2 Loading 100.0 100.0 99.6 40.5 0 0 2.5 dose 100.0 100.0 100.0 71.0 2.0 0 Klebsiella 0.5 100.0 99.7 40.5 0.2 0 0 pneum oniae 0.75 Maintenance 100.0 100.0 90.6 11.0 0 0 1.0 dose, q12h 10 ...

A further data set concerns K. pneumoniae. The settings on record: ref Landersdorfer et al., 2018, cited from earlier work. The procedure: Monte Carlo simulations were conducted for the probability of target attainment (PTA) analysis to guide the selection of optimal dosage regimens. Different dosage regimens were simulated by the PPK model and AUCss,24h were calculated. […] The maximal reductions in colony f ... || FIGURE 4 Probability of target attainment for different dosage regimens of polymyxin B against common carbapenem-resistant organisms according to PK/PD simulations. (A) Loading dose for three bacterial species. […] In preclinical studies, the fAUC/MIC required for various magnitudes of bacterial killing varied among bacterial strains and infection sites. […] Against P. aeruginosa and A. b ... || (+ 2 further places)

The conditions of data set [2]: healthy Chinese subjects, ref Liu et al., 2021, cited from earlier work. From the text: Neurotoxicity is another major dose-limiting factor for the polymyxins, although it often goes unreported given many patients receiving polymyxins are mechanically ventilated which makes assessment difficult. Polymyxin-induced neurotoxicity is very likely dose-dependent and is characterized by symptoms such as dizziness, vertigo, visual disturbances, confusion, hallucinations, seizures, ataxia, facial and peripheral parenthesis, and pruritus ([Falagas and Kasiakou, 2006]; [Weinstein et al., 2009]; [Wahby et al., 2010]; [Honore et al., 2013]). While neurologic side effects such as parenthesis h ...

For data set [3] the following is noted: cited from earlier work. As to the method: Our study is the first to specifically examine patients with BSI using the recommended dosage regimen of polymyxin B (2.5–3.0 mg/kg/d) ([Tsuji et al., 2019]). Previous studies utilizing PPK models to examine polymyxin B PK have included primarily critically ill patients with various medical conditions or patients with cystic fibrosis, and have employed a wide range of doses (0.45–3.38 mg/kg/day) ([Sandri et al., 2013]; [Avedissian et al., 2018]; [Kubin et al., 2018]; [Manchandani et al., 2018]; [Miglis et al., 2018]; [Yu et al., 2021]).
The source holds these as a separate data set.

The conditions of data set [4]: 24 critically ill patients, 0.45–3.38 mg/kg/day, no loading dose, ref Sandri et al., 2013, cited from earlier work. As to the method:
A good understanding of the PK of polymyxin B is essential for optimizing its clinical use. A previous population PK study examining the use of polymyxin B (0.45–3.38 mg/kg/day) in 24 critically ill patients reported an AUCss,24h of 66.9 ± 21.6 mg h/L (range, 16.4–117 mg h/L) and Css,avg of 2.79 ± 0.90 mg/L; no loading dose was administered ([Sandri et al., 2013]).

[5] abbreviates: healthy subjects, ref Liu et al., 2021.

Read-outs that look alike come from different tables or passages of the source. Bridge positions count the residues as written; N and C are the ends. Square brackets hold non-standard residues; d marks the D form. Peptide text beside a SMILES is read from it. * marks the point of attachment. X1 = CC[C@H](C)CCCCC(=O)*; Dab = NCC[C@H](N)C(=O)O

Turning to `CC[C@H](C)CCCCC(=O)N[C@@H](CCN)C(=O)N[C@H](C(=O)N[C@@H](CCN)C(=O)N[C@H]1CCNC(=O)[C@H]([C@@H](C)O)NC(=O)[C@H](CCN)NC(=O)[C@H](CCN)NC(=O)[C@H](CC(C)C)NC(=O)[C@@H](Cc2ccccc2)NC(=O)[C@H](CCN)NC1=O)[C@@H](C)O` [polymyxin B] (X1-[Dab]T[Dab][Dab][Dab][dF]L[Dab][Dab]T; lactam 4-C), the “unbound fraction in plasma” value in data set [1] (as used in PK/PD simulations, given as fraction) was 0.42. Also, the “unbound fraction (f) in human plasma” value in data set [1] (human plasma, ref Sandri et al., 2013) was 42%. Moreover, in the data set on K. pneumoniae (1-log10 reduction against K. pneumoniae, murine thigh infection), the fAUC24h/MIC target is 17.4. Moreover, the “target values of fAUC/MIC” value in the data set with K. pneumoniae (1 log10 kill, mouse thigh infection, three strains of K. pneumoniae) is reported as 3.7–28.0. In addition, in the data set with K. pneumoniae (mouse thigh infection, three strains of K. pneumoniae), the “2 log10 kill” value was 2 log10 kill could not be achieved with even the highest tolerated dose. For the same compound, in data set [2] (single dose 0.75 mg/kg, 1-h infusion, 7 of 10), the “subjects with perioral paraesthesia, dizziness, and numbness of extremities” value is recorded as 70%. For the same compound, the “subjects with perioral paraesthesia, dizziness, and numbness of extremities” value in data set [2] (single dose 1.5 mg/kg, 1.5-h infusion) is listed as “all subjects”. In addition, in data set [3] (setting [5]), the clearance was 0.433 ± 0.067 mL/min/kg, the half-life was 5.55 ± 0.942 h and the volume of distribution is listed as 0.204 ± 0.026 L/kg. In addition, the “dose excreted unchanged in the urine” value in data set [3] (ref Zavascki et al., 2008) is on record as at most 4%. In data set [4] (mean ± SD, SD), the “AUCss,24h” value was 66900 ± 21600 ng·h/mL and the “Css,avg” value is 2790 ± 900 ng/mL. Also, in data set [4], the “AUCss,24h, range” value was 16400 to 117000 ng·h/mL.
